In patent US20240018157A1, “CYCLIC COMPOUNDS AND METHODS OF USING SAME” (Schrödinger, Inc., priority 2019, published 2024):
Structures can show the parent of a compound that is named as a salt.

Tests used:
[1] = target: full-length MALT1 protein His-MALT1(1-824) (Homo sapiens (Human), UniProt Q9UDY8); assay: MALT1 protease assay, Assay 2 (1 nM MALT1, Ac-LRSR-AMC substrate); format: biochemical; settings: 1 nM MALT1, 50 μM Ac-LRSR-AMC, 2 h pre-incubation, 8 hr incubation at RT
Protocol: MALT1 protease activity was assessed in an in vitro assay using a tetrapeptide as substrate and full-length MALT1 protein His-MALT1(1-824) purified from baculovirus-infected insect cells.
The final assay buffer includes 1 nM (Assay 2) or 2 nM (Assay 1) of MALT1 full-length protein, 50 μM Ac-LRSR-AMC substrate, 50 mM Tris pH 7.5, 600 mM Sodium Citrate, 1 mM DTT, 1 mM EDTA, and 0.05% BSA in 384-well plate format using black microtiter square well plates (Optiplate 384-F, Perkin Elmer).
Test compounds were dissolved in 100% DMSO at stock of 10 mM, with final DMSO concentration 0.1%. Test compounds were pre-incubated with MALT1 protein for 2 h at room temperature. Substrate was added after the pre-incubation and fluorescence signal was measured using Envision at excitation 355 nm and emission 460 nm after 8 hr incubation at RT.
The fluorescence units were transformed to percentage of remaining activity by using the high control (HC, median of fluorescence signal from wells containing MALT1 protein, substrate, and DMSO) and low control (LC, median of fluorescence signal from wells with substrate only) with the formula below: […]
IC50 and Hill coefficient were obtained using Graph Pad Prism (Graph Pad software, Inc, USA) with non-linear regression analysis.

[2] = system: IL10 secretion, OCI-LY10 cells; assay: Human IL10 secretion assay, Assay 1 (HTRF); format: cell-based; settings: 24 h incubation, read-out: IL-10 Secretion IC50 [nM] Assay 1
Protocol: IL10 is one of the cytokines that are regulated via activation of NF-kB signaling. For example, in ABC-DLBCL cell lines, the activated NF-kB signaling leads to increased IL10 secretion. Inhibition of NF-kB signaling has been shown leading to decreased IL10 secretion.
Assay 1: OCI-LY10 cells were seeded in IMEM supplemented with 20% fetal bovine serum at 3×10^5 cells per well in 96-well round bottom plates (Corning 3799, Corning), treated with 100 nL of 3-fold serial compound dilutions, starting at 10 mM. The final vehicle concentration was 0.1% DMSO in all wells. After 24 h incubation, the cells were transferred to 96-PCR plates (Axygen: PCR-96-FLT-C) and centrifuged, then 16 μL of cell culture media was transferred to HTRF plates and IL10 levels were measured using human IL-10 Assay Kits (Cisbio) using HTRF format. The signals were transformed to percentage of remaining activity by using the high control (HC, median of signal from wells containing cells treated with DMSO) and low control (LC, median of signal from wells with no cells). IC50 values (nM) were determined using 4-parametric curve-fitting and Hill coefficient were obtained using Graph Pad Prism (Graph Pad software, Inc, USA) with non-linear regression analysis.

Chain of full-length MALT1 protein His-MALT1(1-824) (Q9UDY8 whole entry): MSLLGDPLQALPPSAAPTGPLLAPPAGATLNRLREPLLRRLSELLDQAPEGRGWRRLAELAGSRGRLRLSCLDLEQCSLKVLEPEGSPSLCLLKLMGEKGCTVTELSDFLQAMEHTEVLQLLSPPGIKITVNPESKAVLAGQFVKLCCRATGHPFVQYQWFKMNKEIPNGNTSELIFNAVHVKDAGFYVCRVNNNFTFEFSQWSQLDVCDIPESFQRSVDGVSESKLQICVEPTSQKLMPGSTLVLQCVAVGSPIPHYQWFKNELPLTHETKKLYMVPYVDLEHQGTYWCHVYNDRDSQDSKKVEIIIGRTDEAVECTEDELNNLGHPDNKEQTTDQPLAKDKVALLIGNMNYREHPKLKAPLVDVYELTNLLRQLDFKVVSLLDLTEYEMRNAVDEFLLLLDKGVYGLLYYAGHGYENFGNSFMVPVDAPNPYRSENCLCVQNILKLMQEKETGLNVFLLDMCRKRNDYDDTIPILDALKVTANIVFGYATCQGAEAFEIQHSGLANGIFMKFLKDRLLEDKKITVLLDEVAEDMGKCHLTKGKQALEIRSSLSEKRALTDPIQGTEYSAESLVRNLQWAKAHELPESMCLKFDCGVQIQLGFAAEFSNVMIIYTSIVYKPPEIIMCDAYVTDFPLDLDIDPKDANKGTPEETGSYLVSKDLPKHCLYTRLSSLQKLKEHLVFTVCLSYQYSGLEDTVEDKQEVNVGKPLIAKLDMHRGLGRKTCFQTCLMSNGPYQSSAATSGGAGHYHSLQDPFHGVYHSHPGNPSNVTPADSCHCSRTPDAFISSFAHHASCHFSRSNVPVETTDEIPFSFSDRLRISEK

Row | SMILES | IC50 [1] [nM] | IC50 [2] [nM]
1 | C[C@@]1(C(F)(F)F)CN(C(=O)Nc2cc(C#N)nc(C(F)(F)F)c2)c2cnc3cc(Cl)nn3c21 [compound 61, (R)-2-chloro-N-(2-cyano-6-(trifluoromethyl)pyridin-4-yl)-8-methyl-8-(trifluoromethyl)-7,8-dihydro-6H-pyrazolo[1,5-a]pyrrolo[2,3-e]pyrimidine-6-carboxamide] | 10 to 100 | 100 to 1000
2 | C[C@H]1COC(=O)N1c1cc(NC(=O)N2C[C@@](C)(C(F)(F)F)c3c2cnc2cc(Cl)nn32)cc(C(F)(F)F)n1 [compound 84, (R)-2-chloro-8-methyl-N-(2-((S)-4-methyl-2-oxooxazolidin-3-yl)-6-(trifluoromethyl)pyridine-4-yl)-8-(trifluoromethyl)-7,8-dihydro-6H-pyrazolo[1,5-a]pyrrolo[2,3-e]pyrimidine-6-carboxamide] | 10 to 100 | 100 to 1000
3 | CC1(C(F)(F)F)CN(C(=O)Nc2cnc(-n3nccn3)c(Cl)c2)c2cnc3cc(C(F)F)nn3c21 (centres unmarked) [Compound 62] | 10 to 100 | 10 to 100
4 | C[C@H](O)COc1ncc(NC(=O)N2C[C@@](C)(C(F)(F)F)c3c2cnc2cc(Cl)nn32)cc1Cl [compound 73, (R)-2-chloro-N-(5-chloro-6-((S)-2-hydroxypropoxy)pyridin-3-yl)-8-methyl-8-(trifluoromethyl)-7,8-dihydro-6H-pyrazolo[1,5-a]pyrrolo[2,3-e]pyrimidine-6-carboxamide] | 10 to 100 | 10 to 100
5 | COc1c(C)cc(NC(=O)N2C[C@@](C)(C(F)(F)F)c3c2cnc2cc(Cl)nn32)nc1O[C@H]1CCNC1 [compound 82, (R)-2-chloro-N-(5-methoxy-4-methyl-6-(((S)-pyrrolidin-3-yl)oxy)pyridin-2-yl)-8-methyl-8-(trifluoromethyl)-7,8-dihydro-6H-pyrazolo[1,5-a]pyrrolo[2,3-e]pyrimidine-6-carboxamide formate] | 10 to 100 | 100 to 1000
6 | C[C@@]1(C(F)(F)F)CN(C(=O)Nc2cnn(C(F)F)c2)c2cnc3cc(Cl)nn3c21 [compound 64, (R)-2-chloro-N-(1-(difluoromethyl)-1H-pyrazol-4-yl)-8-methyl-8-(trifluoromethyl)-7,8-dihydro-6H-pyrazolo[1,5-a]pyrrolo[2,3-e]pyrimidine-6-carboxamide] | 10 to 100 | 10 to 100
7 | C[C@@]1(C(F)(F)F)CN(C(=O)Nc2cnnc(C(F)(F)F)c2)c2cnc3cc(Cl)nn3c21 [compound 59, (R)-11-chloro-3-methyl-3-(trifluoromethyl)-N-[6-(trifluoromethyl)pyridazin-4-yl]-1,5,8,12-tetrazatricyclo[7.3.0.02,6]dodeca-2(6),7,9,11-tetraene-5-carboxamide] | 10 to 100 | 10 to 100
8 | C[C@@]1(C(F)(F)F)CN(C(=O)Nc2cnc(C(O)C3CC3)c(Cl)c2)c2cnc3cc(Cl)nn3c21 (stereo partly drawn) [compound 72, (8R)-2-chloro-N-(5-chloro-6-(cyclopropyl(hydroxy)methyl)pyridin-3-yl)-8-methyl-8-(trifluoromethyl)-7,8-dihydro-6H-pyrazolo[1,5-a]pyrrolo[2,3-e]pyrimidine-6-carboxamide] | 10 to 100 | 100 to 1000
9 | COc1nc(OC2CN(C)C2)c(NC(=O)N2C[C@@](C)(C(F)(F)F)c3c2cnc2cc(Cl)nn32)cc1Cl [compound 81, (R)-2-chloro-N-(5-chloro-6-methoxy-2-((1-methylazetidin-3-yl)oxy)pyridin-3-yl)-8-methyl-8-(trifluoromethyl)-7,8-dihydro-6H-pyrazolo[1,5-a]pyrrolo[2,3-e]pyrimidine-6-carboxamide] | 100 to 1000 | –
